# Laboratory results taken from patent US20230365589A1, “NOVEL AMINE DERIVATIVES” (Sumitomo Pharma Co., Ltd., priority 2020, published 2023).
# Like-named read-outs stand apart in the source and are kept apart here.
# How the values were obtained:
# Format in all cases: biochemical
# [1] = target: T1, DYRK3 (Homo sapiens, UniProt O43781); experiment: Inhibition test on activity of DYRK family, mobility shift assay (MSA): DYRK3
# T1 construct: purchased Carna Biosciences, Inc. 04-133
# T1 sequence (O43781 1-568 isoform O43781-2): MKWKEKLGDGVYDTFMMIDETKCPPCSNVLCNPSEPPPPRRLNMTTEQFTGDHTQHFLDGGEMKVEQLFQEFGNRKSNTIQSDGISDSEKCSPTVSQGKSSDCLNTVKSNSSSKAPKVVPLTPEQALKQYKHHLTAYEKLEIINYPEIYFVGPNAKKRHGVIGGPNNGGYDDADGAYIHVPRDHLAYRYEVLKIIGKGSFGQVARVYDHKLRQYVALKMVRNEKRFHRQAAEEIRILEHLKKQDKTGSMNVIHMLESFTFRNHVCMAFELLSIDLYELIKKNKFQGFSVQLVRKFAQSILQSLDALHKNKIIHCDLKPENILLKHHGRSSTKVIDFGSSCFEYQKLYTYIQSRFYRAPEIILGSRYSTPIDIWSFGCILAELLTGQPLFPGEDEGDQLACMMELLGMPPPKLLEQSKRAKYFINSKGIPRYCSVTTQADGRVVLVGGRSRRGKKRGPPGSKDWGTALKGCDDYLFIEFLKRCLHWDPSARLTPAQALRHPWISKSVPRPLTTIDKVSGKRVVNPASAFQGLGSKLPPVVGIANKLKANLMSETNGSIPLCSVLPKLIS
# Description: (§1) [Inhibition Test on Activity of DYRK Family (DYRK1A, DYRK1B, DYRK2, and DYRK3)]
# (§2) The kinase activity was measured by mobility shift assay (MSA) method using QuickScout Screening Assist™ MSA (commercially available kit manufactured by Carna Biosciences, Inc.). The substrate of the kinase reaction used was an FITC-labeled DYRKtide peptide included in the kit. An assay buffer [20 mM HEPES, 0.01% Triton X-100™, 2 mM dithiothreitol, pH 7.5]was used to create a substrate mixture solution with a substrate (4 μM), MgCl2(20 mM), and ATP (DYRK1A: 100 μM; DYRK1B: 200 μM; DYRK2: 40 μM; and DYRK3: 20 μM). In addition, kinases (DYRK1A: manufactured by Carna Biosciences, Inc., Cat. No. 04-130; DYRK1B: manufactured by Carna Biosciences, Inc., Cat. No. 04-131; DYRK2; manufactured by Carna Biosciences, Inc., Cat. No. 04-132; and DYRK3; manufactured by Carna Biosciences, Inc., Cat. No. 04-133) were diluted with the assay buffer to prepare enzyme solutions (DYRK1A: 0.2 ng/μL; DYRK1B: 0.08 ng/μL; DYRK2: 0.04 ng/μL; and DYRK3: 0.25 ng/μL). The 10 mM solution of the test compound in DMSO was further diluted with DMSO to 10 levels of the concentration (0.00003 mM, 0.0001 mM, 0.0003 mM, 0.001 mM, 0.003 mM, 0.01 mM, 0.03 mM, 0.1 mM, 0.3 mM, and 1 mM), each of which was subjected to 25-fold dilution with the assay buffer to obtain a drug solution (4% DMSO solution). 5 μL of the drug solution or a control solution (4% DMSO-assay buffer), 5 μL of the substrate mixture solution, and 10 μL of the enzyme solution were mixed in the wells of a polypropylene 384-well plate and allowed to react at room temperature for 1 hour, and then the reaction was quenched by adding 60 μL of the termination buffer included in the kit. Subsequently, the quantities of the substrates (S) and the phosphorylated substrate (P) in the reaction solution were measured using LabChip EZ Reader II system (manufactured by Caliper Life Sciences) according to the protocol of the assay kit.
# (§3) The heights of the peaks of the “substrate” and the “phosphorylated substrate” were expressed as S and P, respectively, and a blank containing the assay buffer instead of the enzyme solution was also measured.
# (§4) The inhibition rate (%) of the test compound was calculated according to the following equation:
# (§5) Inhibition rate (%)=(1−(C−A)/(B−A))×100 • wherein, A, B, and C represent P/(P+S) of the blank well, P/(P+S) of the control solution well, and P/(P+S) of the compound-containing well, respectively.
# (§6) The IC50 value was calculated via a regression analysis of the inhibition rate and the test compound concentration (logarithmic value).
# (§7) The inhibiting activities of representative compounds of the present invention are shown against DYRK1A, DYRK1B, DYRK2, and DYRK3 in Tables.
# [2] = target: T2, DYRK1A (Homo sapiens, UniProt Q13627); experiment: Inhibition test on activity of DYRK family, mobility shift assay (MSA): DYRK1A
# T2 construct: purchased Carna Biosciences, Inc. 04-130
# Description: as §1, §2, §3, §4, §5, §6
# [3] = target: T3, DYRK2 (Homo sapiens, UniProt Q92630); experiment: Inhibition test on activity of DYRK family, mobility shift assay (MSA): DYRK2
# T3 construct: purchased Carna Biosciences, Inc. 04-132
# T3 sequence (Q92630 74-601 limits assumed): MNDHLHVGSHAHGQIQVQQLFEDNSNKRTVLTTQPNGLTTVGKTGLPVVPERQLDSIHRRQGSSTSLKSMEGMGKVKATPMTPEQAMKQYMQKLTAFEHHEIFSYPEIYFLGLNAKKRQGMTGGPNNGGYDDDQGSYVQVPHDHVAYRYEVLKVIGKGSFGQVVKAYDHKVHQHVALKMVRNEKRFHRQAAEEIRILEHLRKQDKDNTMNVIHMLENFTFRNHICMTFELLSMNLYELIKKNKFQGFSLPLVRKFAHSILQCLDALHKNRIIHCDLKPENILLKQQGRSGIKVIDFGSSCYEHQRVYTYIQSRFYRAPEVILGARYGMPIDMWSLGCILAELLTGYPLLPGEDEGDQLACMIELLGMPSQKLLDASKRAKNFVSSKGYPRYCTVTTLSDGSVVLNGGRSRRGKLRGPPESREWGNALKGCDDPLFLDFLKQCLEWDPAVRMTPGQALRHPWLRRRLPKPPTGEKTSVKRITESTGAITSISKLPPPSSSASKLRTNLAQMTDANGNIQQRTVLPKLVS
# Description: as §1, §2, §3, §4, §5, §6, §7
# [4] = read-out: Inhibitory activity DYRK 3
# [5] = read-out: Inhibitory activity DYRK 1A
# [6] = read-out: Inhibitory activity DYRK 2
# [7] = MSA, FITC-labeled DYRKtide peptide, ATP 20 μM, read-out: Inhibitory activity DYRK 3 (IC50 class)
# [8] = MSA, FITC-labeled DYRKtide peptide, ATP 100 μM, read-out: Inhibitory activity DYRK 1A (IC50 class)
# [9] = MSA, FITC-labeled DYRKtide peptide, ATP 40 μM, read-out: Inhibitory activity DYRK 2 (IC50 class)
SMILES,"IC50 [1, 4]","IC50 [2, 5]","IC50 [3, 6]","IC50 [1, 7]","IC50 [2, 8]","IC50 [3, 9]"
"N#CCN1CC[C@H]2NC(=O)N(c3nc4c5c(ccc4s3)OCC5)[C@H]2C1 (single isomer, unassigned) [Example 111]",≥ 1000 nM,100 to 1000 nM,≥ 1000 nM,,,
"N#CCN1CC[C@@H]2NC(=O)N(c3nc4c5c(ccc4s3)OCC5)[C@@H]2C1 (single isomer, unassigned) [Example 112]",100 to 1000 nM,< 10 nM,≥ 1000 nM,,,
"C#CCN1CC[C@@H]2NC(=O)N(c3nc4c5c(ccc4s3)OCC5)[C@@H]2C1 (single isomer, unassigned) [Example 114]",100 to 1000 nM,< 10 nM,100 to 1000 nM,,,
O=C1NC2CNCCC2N1c1nc2c3c(ccc2s1)OCC3 (stereo not drawn) [Example 2],,,,10 to 100 nM,10 to 100 nM,100 to 1000 nM
O=C1N[C@H]2CCCNC[C@H]2N1c1nc2c3c(ccc2s1)OCC3 [Example 4],,,,100 to 1000 nM,100 to 1000 nM,≥ 1000 nM
O=C1N[C@H]2CNCCC[C@H]2N1c1nc2c3c(ccc2s1)OCC3 [Example 5],,,,100 to 1000 nM,10 to 100 nM,100 to 1000 nM
COCCN1CCC2C(C1)NC(=O)N2c1nc2c3c(ccc2s1)OCC3 (stereo not drawn) [Example 10],,,,≥ 1000 nM,100 to 1000 nM,≥ 1000 nM
CCN1CCC2C(C1)NC(=O)N2c1nc2c3c(ccc2s1)OCC3 (stereo not drawn) [Example 12],,,,100 to 1000 nM,10 to 100 nM,100 to 1000 nM
O=C1NC2CCN(CCO)CC2N1c1nc2c3c(ccc2s1)OCC3 (stereo not drawn) [Example 13],,,,≥ 1000 nM,10 to 100 nM,≥ 1000 nM
CC(C)N1CC2NC(=O)N(c3nc4c5c(ccc4s3)OCC5)C2C1 (stereo not drawn) [Example 16],,,,≥ 1000 nM,100 to 1000 nM,≥ 1000 nM
CN1CCC[C@@H]2[C@H](C1)NC(=O)N2c1nc2c3c(ccc2s1)OCC3 [Example 18],,,,100 to 1000 nM,10 to 100 nM,100 to 1000 nM
"O=C1N[C@H]2COCC[C@H]2N1c1nc2c3c(ccc2s1)OCO3 [Example 21, (3aR,7aR)-1-(2H-[1,3]dioxolo[4,5-e][1,3]benzothiazol-7-yl)hexahydropyrano[3,4-d]imidazol-2(3H)-one]",,,,100 to 1000 nM,< 10 nM,100 to 1000 nM
"C[C@H]1NC(=O)N(c2nc3c4c(ccc3s2)OCC4)[C@@H]1CN(C)C [Example 22, (4R,5R)-1-(7,8-dihydrofuro[3,2-e][1,3]benzothiazol-2-yl)-5-[(dimethylamino)methyl]-4-methylimidazolidin-2-one]",,,,≥ 1000 nM,100 to 1000 nM,≥ 1000 nM
C[C@@H]1NC(=O)N(c2nc3c4c(ccc3s2)OCC4)[C@@H]1CN(C)C [Example 25],,,,≥ 1000 nM,10 to 100 nM,≥ 1000 nM
O=C1NC2CCNCC2N1c1nc2c3c(ccc2s1)OCCO3 (stereo not drawn) [Example 29],,,,≥ 1000 nM,10 to 100 nM,≥ 1000 nM
O=C1NC2CCNCC2N1c1nc2c3c(ccc2s1)OCO3 (stereo not drawn) [Example 30],,,,≥ 1000 nM,10 to 100 nM,≥ 1000 nM

SMILES,"IC50 [1, 4]","IC50 [2, 5]","IC50 [3, 6]","IC50 [1, 7]","IC50 [2, 8]","IC50 [3, 9]"
O=C1NC2CCN(C3CC3)CC2N1c1nc2c3c(ccc2s1)OCO3 (stereo not drawn) [Example 32],,,,≥ 1000 nM,< 10 nM,≥ 1000 nM
"COC[C@@H]1[C@H](C)NC(=O)N1c1nc2c3c(ccc2s1)OCC3 [Example 44, (4S,5S)-1-(7,8-dihydrofuro[3,2-e][1,3]benzothiazol-2-yl)-5-(methoxymethyl)-4-methylimidazolidin-2-one]",,,,100 to 1000 nM,< 10 nM,100 to 1000 nM
O=C1N[C@H]2CCNCC[C@H]2N1c1nc2c3c(ccc2s1)OCC3 [Example 45],,,,10 to 100 nM,10 to 100 nM,100 to 1000 nM
O=C1N[C@@H]2[C@@H](CCNC23CC3)N1c1nc2c3c(ccc2s1)OCC3 [Example 46],,,,100 to 1000 nM,10 to 100 nM,100 to 1000 nM
O=C1N[C@H]2CCNC3(CC3)[C@H]2N1c1nc2c3c(ccc2s1)OCC3 [Example 47],,,,100 to 1000 nM,100 to 1000 nM,≥ 1000 nM
O=C1N[C@@H]2CCNC3(CC3)[C@H]2N1c1nc2c3c(ccc2s1)OCC3 [Example 48],,,,10 to 100 nM,10 to 100 nM,100 to 1000 nM
O=C1N[C@H]2CNC[C@H](F)[C@H]2N1c1nc2c3c(ccc2s1)OCC3 [Example 49],,,,100 to 1000 nM,10 to 100 nM,100 to 1000 nM
O=C1N[C@H]2[C@H](F)CNC[C@H]2N1c1nc2c3c(ccc2s1)OCC3 [Example 50],,,,100 to 1000 nM,100 to 1000 nM,≥ 1000 nM
O=C1N[C@H]2CNCC[C@H]2N1c1nc2c3c(ccc2s1)OCCO3 [Example 51],,,,100 to 1000 nM,10 to 100 nM,100 to 1000 nM
O=C1N[C@H]2CCN(C3CNC3)C[C@H]2N1c1nc2c3c(ccc2s1)OCC3 [Example 53],,,,100 to 1000 nM,100 to 1000 nM,≥ 1000 nM
O=C1N[C@H]2CNCCC[C@H]2N1c1nc2c3c(ccc2s1)OCO3 [Example 54],,,,100 to 1000 nM,10 to 100 nM,100 to 1000 nM
O=C1N[C@H]2CCCNC[C@H]2N1c1nc2c3c(ccc2s1)OCO3 [Example 55],,,,100 to 1000 nM,100 to 1000 nM,≥ 1000 nM
O=C1N[C@H]2CNC3(CC3)C[C@H]2N1c1nc2c3c(ccc2s1)OCC3 [Example 56],,,,100 to 1000 nM,100 to 1000 nM,≥ 1000 nM
O=C1N[C@H]2CC3(CC3)NC[C@H]2N1c1nc2c3c(ccc2s1)OCC3 [Example 57],,,,100 to 1000 nM,100 to 1000 nM,≥ 1000 nM
"O=C1N[C@H]2COC[C@H]2N1c1nc2c3c(ccc2s1)OCC3 [Example 65, (3aR,6aS)-1-(7,8-dihydrofuro[3,2-e][1,3]benzothiazol-2-yl)tetrahydro-1H-furo[3,4-d]imidazol-2(3H)-one]",,,,10 to 100 nM,< 10 nM,10 to 100 nM
O=C1N[C@@H]2COC[C@@H]2N1c1nc2c3c(ccc2s1)OCC3 [Example 66],,,,≥ 1000 nM,100 to 1000 nM,≥ 1000 nM
